Patent US20080214480A1, “Method for Treating Sickle Cell Disease and Sickle Cell Disease Sequalae” (TRF Pharma, Inc., priority 2005, published 2008)

Key:
transplanted livers = settings: livers pretreated with PPS; cited from earlier work
DU145 = settings: DU145, dependent on anchorage; cited from earlier work
Human SCD patients = assay: Computer-assisted intravital microscopy (CAIM) of conjunctival microcirculation, Example 1; type: in vivo; settings: SCD patients hospitalized for VOC, high dose, relative to placebo group
Description: Human SCD patients are enrolled to be studied by a non-invasive videotape of the conjunctival microcirculation. Recently, microvascular characteristics in SCD patients have been quantified using computer-assisted intravital microscopy (CAIM), a novel technology involving intravital video-microscopy coupled with imaging protocols, to study and analyze steady-state and vaso-occlusive crisis (VOC) microvascular characteristics in SCD (Cheung et al, Blood. 2002; 99:3999). During VOC, decreases in vascularity (“blanching”) occur as a result of vasoconstriction and diminished blood flow through the microvessels. […] The microvascular changes during VOC are transient and revert to steady-state values after crisis resolution. These specific reversals in VOC are used as the basis for this study to evaluate and quantify the effects of PPS on the microcirculation.
Because of the unique shape and form of conjunctival vessels, each vessel is easily identified and located to be re-studied. Each vessel serves as its own reference (control) to evaluate and quantify microvascular changes. […] CAIM is used to non-invasively videotape and longitudinally quantify the changes in venular diameter and red-cell velocity pre- and post-treatment of PPS, sulodexide or placebo at various time points post treatment.

PC-3 = settings: PC-3, not dependent on anchorage; cited from earlier work
tumor cell adhesion = settings: direct measurements, Schamhart; cited from earlier work
[1] = test system: adhesion of RBC from sickle cell patients (ssRBC) to human umbilical vein endothelial cells (HUVEC); assay: Variable height flow chamber adhesion of ssRBC to endothelial cells, Example 4; type: cell-based; settings: HUVEC stimulated with thrombin or TNF-alpha, treated thirty minutes at 37° C., versus control preparations
Description: The effects of PPS or sulodexide on sickle cell erythrocyte adhesion are evaluated by in vitro study according to procedures similar to those described in Telen et al. (Blood, 2004, 104:3774); Niihara et al (BMC Blood Disorders, 2005, 5:4); and Barabino et al (Blood, 1999, 93:1422-29). In brief, a variable height flow chamber is used to quantitate the effects of PPS on the adhesion of RBC from sickle cell patients (ssRBC) to endothelial cells. Human umbilical vein endothelial cells (HUVEC) are grown on gelatin coated glass slides until confluent. The HUVEC's are then stimulated with thrombin or TNF-alpha and washed with PBS with Ca^+2 and Mg^+2. Following activation, the endothelial cells are treated with various concentrations of PPS for thirty minutes at 37° C. The endothelial cells are then washed in PBS with Ca^+2 and Mg^+2, mounted onto the variable height flow chamber where the final testing unit is assembled. […] Adhesion is quantitated by counting the adherent ssRBCs in a field in 7 different locations along the slide in the direction of the flow. The height of the chamber at each of these 7 locations is measured so that the shear stress can be calculated; note that the typical range seen is between 0.3 to 2.7 dynes/cm^2. […]

LNCaP = settings: dependent on anchorage; cited from earlier work
[2] = Wardle 1992; cited from earlier work
HUVEC cells = settings: Barabino et al, Blood 1999; cited from earlier work
immobilized P-selectin = target: T1, immobilized P-selectin (Homo sapiens, UniProt P16109); settings: Matsui, Blood 2002; cited from earlier work
T1 sequence (P16109 42-830): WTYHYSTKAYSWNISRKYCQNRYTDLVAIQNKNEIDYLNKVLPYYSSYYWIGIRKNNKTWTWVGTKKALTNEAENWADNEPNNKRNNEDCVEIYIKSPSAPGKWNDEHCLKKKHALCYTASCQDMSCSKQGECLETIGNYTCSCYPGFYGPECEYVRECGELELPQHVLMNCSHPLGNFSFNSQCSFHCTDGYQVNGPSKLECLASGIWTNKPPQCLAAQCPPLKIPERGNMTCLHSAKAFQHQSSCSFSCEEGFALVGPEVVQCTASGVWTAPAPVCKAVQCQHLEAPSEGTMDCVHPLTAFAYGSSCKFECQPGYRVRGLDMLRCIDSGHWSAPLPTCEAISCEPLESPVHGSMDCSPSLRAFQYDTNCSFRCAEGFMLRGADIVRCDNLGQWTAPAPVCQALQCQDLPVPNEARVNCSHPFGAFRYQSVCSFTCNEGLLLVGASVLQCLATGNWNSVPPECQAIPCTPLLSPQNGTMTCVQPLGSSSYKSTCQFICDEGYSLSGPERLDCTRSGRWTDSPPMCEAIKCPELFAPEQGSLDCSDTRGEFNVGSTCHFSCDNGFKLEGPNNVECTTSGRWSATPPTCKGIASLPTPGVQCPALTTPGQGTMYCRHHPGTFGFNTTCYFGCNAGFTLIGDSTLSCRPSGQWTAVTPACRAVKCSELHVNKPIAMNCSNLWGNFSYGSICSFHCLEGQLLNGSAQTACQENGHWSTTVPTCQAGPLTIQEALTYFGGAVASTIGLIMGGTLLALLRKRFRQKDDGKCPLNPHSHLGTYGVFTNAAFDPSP

[3] = test system: patients with sickle cell crises; settings: four patients, 12-month self-administered intravenous minidose heparin vs 12 months off heparin; cited from earlier work
human endothelial cells = settings: Gupta et al; cited from earlier work

Substance: Pentosan polysulfate [PPS]
- leukocytes adhering to the vascular wall (transplanted livers): significantly fewer
- reperfusion edema (transplanted livers): no reperfusion edema
- growth and migration of tumor cell line (DU145): inhibited
- microvascular flow (venular diameter and red-cell velocity by CAIM) (Human SCD patients): significant improvement in microvascular flow
- growth and migration of tumor cell line (PC-3): no effect
- tumor cell adhesion (tumor cell adhesion): inhibited
- percentage of adherent cells [1]: reduction
- growth and migration of tumor cell line (LNCaP): inhibited
- anticoagulant potency relative to heparin [2]: about one-fifteenth

Substance: chondroitin sulfate
- sickle cell adhesion to HUVEC cells (HUVEC cells): inhibited

Substance: dextran sulfate
- sickle cell adhesion to HUVEC cells (HUVEC cells): inhibited

Substance: heparin
- in vitro flow adhesion of sickle cells to immobilized P-selectin (immobilized P-selectin): inhibited
- pain reduction [3]: improvement in pain reduction
- sickle erythrocyte adhesion to human endothelial cells in vitro (human endothelial cells): inhibited
- sickle cell adhesion to HUVEC cells (HUVEC cells): inhibited

Substance: heparin sulfate
- sickle cell adhesion to HUVEC cells (HUVEC cells): did not

Substance: low molecular weight heparin
- in vitro flow adhesion of sickle cells to immobilized P-selectin (immobilized P-selectin): not low molecular weight heparin proved to be effective
